PubChem BioAssay (NCI)
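Growth conditions: 96-well plates. Treatment: test compound, 48 hours, 5 concentrations. Analysis: linear interpolation between bracketing concentrations; unreached endpoints set to highest concentration. At the TGI there is no net growth.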

Tests used:
Assay in all cases: NCI tumour cell line growth inhibition, 48 h
NCI-H522 lung = tested on: NCI-H522 lung
HS 578T breast = tested on: HS 578T breast
LOX IMVI melanoma = tested on: LOX IMVI melanoma
SN12C renal = tested on: SN12C renal
MDA-MB-435 = tested on: MDA-MB-435
HCT-15 colon = tested on: HCT-15 colon
SK-MEL-5 melanoma = tested on: SK-MEL-5 melanoma
RXF 393 renal = tested on: RXF 393 renal

SMILES | TGI (NCI-H522 lung) | TGI (HS 578T breast) | TGI (LOX IMVI melanoma) | TGI (SN12C renal) | TGI (MDA-MB-435) | TGI (HCT-15 colon) | TGI (SK-MEL-5 melanoma) | TGI (RXF 393 renal)
COc1ccc(N2C(=O)C(=O)N(c3ccccc3[N+](=O)[O-])C2=S)cc1 | 24.4 µM | 84 µM | 32.4 µM | > 100 µM | 88.2 µM | 40.5 µM | 32.5 µM | 52.8 µM
O=C(O)CC1NC(/C(=C/c2ccccc2)NC(=O)c2ccccc2)OC1=O (stereo not given) | 33.5 µM | > 100 µM | 36 µM | > 100 µM | 67 µM | > 100 µM | 32.3 µM | > 100 µM
CS(=O)(=O)O[C@H]1CN2C[C@@H](O)[C@@H](O)[C@H]2[C@H]1CO | – | – | > 100 µM | – | > 100 µM | > 100 µM | > 100 µM | > 100 µM
CN1CCN(C(=O)CCNC(=O)Cc2ccc(C(=O)c3ccccc3)cc2)CC1 | > 100 µM | > 100 µM | > 100 µM | > 100 µM | 56 µM | > 100 µM | > 100 µM | > 100 µM
COc1cccc2c1OC(c1ccc(Cl)cc1)C([N+](=O)[O-])=C2 (stereo not given) | 3.23 µM | 13.4 µM | 2.71 µM | 8.41 µM | 8.68 µM | 10.8 µM | 2.95 µM | 3.32 µM
C=C1C(=O)C[C@H]2C(=C)C(=O)O[C@@H]2C2C1CC[C@@]2(C)O (stereo not given in full) | 41.4 µM | > 100 µM | 68.8 µM | > 100 µM | > 100 µM | 69.2 µM | > 100 µM | 43.9 µM
CCCC[C@@H]1CCN2C[C@@H](O)[C@@H](O)[C@@H]2[C@H]1O | > 100 µM | > 100 µM | > 100 µM | > 100 µM | > 100 µM | > 100 µM | > 100 µM | > 100 µM
COc1cc(/C=C2\C[C@H]3[C@@H]4CCc5cc(O)ccc5[C@H]4CC[C@]3(C)C2=O)cc(OC)c1OC | 3.95 µM | – | 30.7 µM | 39.5 µM | 48.6 µM | > 100 µM | 38.4 µM | 24.1 µM
CN(C(=O)C1=CCC2(CC1)OCCO2)c1ccccc1OS(=O)(=O)C(F)(F)F | – | – | > 100 µM | > 100 µM | > 100 µM | > 100 µM | > 100 µM | > 100 µM
Nc1ccc2c(c1)N(C(=O)c1cc3cc(NC(=O)c4cc5ccccc5o4)ccc3[nH]1)CC2CCl (stereo not given) | – | 0.696 µM | > 100 µM | > 46.4 µM | 0.512 µM | > 100 µM | – | 0.0496 µM
Cc1cc(C)nc(NC(=O)c2ccc(Br)s2)c1 | > 100 µM | – | > 100 µM | > 100 µM | > 100 µM | > 100 µM | 17.6 µM | > 100 µM
CCc1cc2c(oc3cc4ccccc4cc32)c(=O)[nH]1 | > 10 µM | > 10 µM | > 10 µM | > 10 µM | – | > 10 µM | – | > 10 µM
C/C(=N\NC(=S)N1CCCCC1)c1nc2ncccc2[nH]1 | 30.7 µM | > 100 µM | > 100 µM | > 100 µM | 35 µM | > 100 µM | 12.3 µM | –
CCCCc1c(N(C)C)c(OC(C)=O)c(-c2cn(C)c3ccccc23)oc1=O | 49.5 µM | > 100 µM | – | 59.8 µM | 47.8 µM | 53.7 µM | 26.8 µM | > 100 µM
CN(CC(=O)O)c1ncc2c(n1)-c1ccccc1SC2 | > 100 µM | > 100 µM | > 100 µM | > 100 µM | > 100 µM | > 100 µM | > 100 µM | –
COC(=O)CCC1=CCC2(SC)C(=O)Nc3cccc1c32 (stereo not given) | > 100 µM | > 100 µM | > 100 µM | > 100 µM | > 100 µM | > 100 µM | > 100 µM | –
CCOC(=O)c1c(-c2ccc(OC)cc2)c(C#N)c(=S)n(C2OC(COC(C)=O)C(OC(C)=O)C(OC(C)=O)C2OC(C)=O)c1-c1ccccc1 (stereo not given) | – | > 100 µM | > 100 µM | > 100 µM | > 100 µM | > 100 µM | > 100 µM | > 100 µM
CC(C)(Br)C(Br)CCC1(C2CO2)CO1 (stereo not given) | > 5 µM | > 5 µM | – | > 5 µM | > 5 µM | > 5 µM | > 5 µM | > 5 µM
CC(C)(C)OC(=O)N1CCc2[nH][nH]c(=O)c2C1 | > 100 µM | > 100 µM | – | > 100 µM | > 100 µM | > 100 µM | – | > 100 µM
CC(=O)Nc1ccc(N2C(=O)/C(=C\c3cccc(Oc4ccccc4)c3)S(=O)(=O)C2c2ccccc2)cc1 (stereo not given) | > 100 µM | – | > 100 µM | > 100 µM | > 100 µM | > 100 µM | > 100 µM | > 100 µM
COC(=O)c1ccc(C(=O)NC(Cc2ccc(Oc3cc(CC(NC(=O)c4ccccc4C(=O)OC)C(=O)OC)ccc3OC)cc2)C(=O)OC)cc1 (stereo not given) | – | 39.3 µM | > 100 µM | > 100 µM | > 100 µM | > 100 µM | – | –
CC1(c2cccs2)CC(c2cccs2)=C(C#N)C(=C(C#N)C#N)N1 (stereo not given) | – | 69.5 µM | 32.4 µM | 35.6 µM | 31.8 µM | 33.8 µM | 28.8 µM | 38.7 µM
CCCCC1=NNC(=O)C1 | > 100 µM | > 100 µM | – | > 100 µM | > 100 µM | > 100 µM | > 100 µM | > 100 µM
COc1cc(C2SCC(=O)N2c2ccccn2)cc(OC)c1OC (stereo not given) | > 100 µM | > 100 µM | > 100 µM | > 100 µM | 77.6 µM | > 100 µM | > 100 µM | –
COc1ccccc1/C(=N\OCCC(=O)O)c1cccs1 | – | > 100 µM | > 100 µM | > 100 µM | > 100 µM | > 100 µM | > 100 µM | > 100 µM
OCC1OC(c2cccc3cc(O)c(O)cc23)CC1O (stereo not given) | > 100 µM | > 100 µM | > 100 µM | > 100 µM | > 100 µM | > 100 µM | – | –
CC(=O)Nc1ccc(C(=O)NN2C(=O)CSC2c2ccc([N+](=O)[O-])cc2)cc1 (stereo not given) | – | > 100 µM | – | > 100 µM | > 100 µM | > 100 µM | > 100 µM | > 100 µM
